Patent US7311892B2, “Multidrug multiligand conjugates for targeted drug delivery” (priority 2001, dated 2007)

Tests used:
[1] = test system: NCI-H1299 non-small cell lung cancer cells; test: Apoptosis induction assay (Annexin V-FITC, flow cytometry); type: cell-based; settings: 50 nM, 3 hours exposure, then drug-free medium; analysed after 96 hours; triplicate
Protocol: Apoptosis was measured by an Annexin V-FITC kit. […] 2.3%, 2.5% and 2.4% induction for untreated cells, free PTX, the BTN/SaV complex and the BTN/SaV+PTX controls, respectively.
FIG. 6 illustrates the results of an apoptosis induction assay, illustrating NCI-HI299 cells are induced to undergo apoptosis specifically in response to the PTX-BBN[7-13]-BTN-SaV conjugate. Cells were grown as described above and in Example 3 and left untreated or treated with 50 nM of the PTX-BBN[7-13]-BTN-SaV conjugate, unconjugated paclitaxel (PTX), the biotin/streptavidin complex (BTN/SaV) or a mixture of BTN/SaV and PTX. After 3 hours, the media containing these additives was removed and replaced with fresh media. After 96 hours, the cells were removed from the 24 well plates by treatment with trypsin/EDTA and analyzed for Annexin V by flow cytometry using an Annexin V-FITC kit (Biovision, Palo Alto, Calif.). All treatments were done in triplicate and presented as the percentage of cells staining with Annexin V-FITC. […]
The HI299 cells were plated in 24 well plates at a density of 10,000 cells/well and allowed to adhere for 24 hours. […] After 96 hours, the cells were removed from the 24 well plates by treatment with trypsin/EDTA and analyzed for Annexin V by flow cytometry using an Annexin V-FITC kit (Biovision, Palo Alto, Calif.). […]

[2] = test system: NCI-H1299 non-small cell lung cancer cells; test: Cell proliferation assay; type: cell-based; settings: Homo sapiens, 50 nM, 3 hours exposure, then drug-free medium, cells counted after 96 hours, normalized to untreated cells, quadruplicate, read-out: growth inhibition
Protocol: Cells were grown as described in Example 2 and exposed to various treatments. The cells were left untreated or treated with 50 nM of the PTX-BBN[7-13]-BTN-SaV conjugate, unconjugated paclitaxel (PTX), the biotin/streptavidin complex (BTN/SaV) or a mixture of BTN/SaV and PTX. After 3 hours, the media containing these additives was removed and replaced with fresh media. After 96 hours, the cells were removed from the 24 well plates by treatment with trypsin/EDTA and counted with a Coulter particle counter. All treatments were done in quadruplicate and the cell counts were normalized to the untreated cells.
To evaluate the growth inhibitory effects of the PTX-BBN[7-13]-BTN/SaV conjugate, experiments were designed to compare the effect of the conjugate with the unconjugated paclitaxel, the BTN/SaV complex and a mixture of free PTX and the BTN/SaV complex (FIG. 5).
The HI299 cells were plated in 24 well plates at a density of 10,000 cells/well and allowed to adhere for 24 hours. The cells were treated with 50 nM of the following: 1) no treatment (Untreated); 2) unconjugated paclitaxel(PTX); 3) biotin/streptavidin complex (BTN/SaV); 4) a mixture of BTN/SaV and PTX; and 5) the PTX-BBN[7-13]-BTN/SaV conjugate (Conjugate) described in FIG. 1A. […] After 96 hours, the cells were removed from the 24 well plates by treatment with trypsin/EDTA and counted with a Coulter particle counter. […]

CC(=O)O[C@H]1C(=O)[C@@]2(C)[C@H]([C@H](OC(=O)c3ccccc3)[C@]3(O)C[C@H](OC(=O)[C@H](O)[C@@H](NC(=O)c4ccccc4)c4ccccc4)C(C)=C1C3(C)C)[C@]1(OC(C)=O)CO[C@@H]1C[C@@H]2O [free PTX, paclitaxel]
induction of apoptosis (percentage of cells staining with Annexin V-FITC) [1]: ~2.3% | inhibition at 0.05 µM [2]: 0%
